The test system of experiment [1] is human striated muscle cells innervated with explants of spinal cord and spinal ganglia from rat embryos. In words: nerve-muscle coculture model, inhibition of muscle fibre contractions. Type of experiment: cell-based. To be noted: for contraction-inhibiting effect: test identical to Example 1. The method, then:
Three extracts of Boswellia serrata were tested on a nerve-muscle coculture model which makes it possible to recreate a motor arc by innovating human striated muscle cells with explants of spinal cord and of spinal ganglia from rat embryos.
Human muscle cells derived from human muscle samples from a healthy donor are seeded in 15 mm-diameter wells (24-well culture dishes). After culturing for 10 days, these cells form a monolayer and fuse. At this stage, spinal cord explants from 13-day-old rat embryos, containing the spinal ganglion, are deposited onto the culture.
The first muscle fibre contractions are observed after coculturing for one week.
A muscle fibre having regular contractions (at least 60 contractions per minute) is then selected in three different culture wells and the number of contractions is counted over 30 seconds using image analysis software. The extracts tested, diluted in ethanol, are then incubated for 60 seconds in these wells, at the concentrations C1 and C2 of 0.005% and 0.01%. At the end of the incubation, the number of contractions is again counted over 30 seconds.
The percentage of inhibited contractions is then determined.

Experiment [2] deals with calcium channels. In words: model of calcium flux. Type of experiment: cell-based. To be noted: compared with beta-boswellic acid, 3-O-acetylboswellic acid and 11-ketoboswellic acid. On the procedure: The four pentacyclic triterpene acids contained, according to the literature, in extract of Boswellia serrata, namely beta-boswellic acid, 3-O-acetylboswellic acid, 11-ketoboswellic acid and 3-O-acetyl-11-ketoboswellic acid, were tested in a model of calcium flux in order to evaluate their capacity for inhibiting calcium channels and therefore their ability to relax lines and smooth out expression lines.

Experiment [3] in a line: anti-wrinkle activity in vivo.

As for `CC(=O)O[C@@H]1CC[C@@]2(C)[C@@H](CC[C@]3(C)[C@@H]2C(=O)C=C2[C@@H]4[C@@H](C)[C@H](C)CC[C@]4(C)CC[C@]23C)[C@@]1(C)C(=O)O` [3-O-acetyl-11-ketoboswellic acid], the contraction-inhibiting effect in experiment [1] (5 μM) worked out at 74.7%; in experiment [1] (10 μM), 87%. Moreover, the “relaxing effect (capacity for inhibiting calcium channels)” value in experiment [2] was “clearly greater than that obtained for the other three acids tested”.
For the compound `CN1C(=O)CN=C(c2ccccc2)c2cc(Cl)ccc21` [diazepam, reference compound], the muscle fibre contractions entry in experiment [1] (earlier demonstration by the applicant) is on record as “inhibited muscle fibre contractions”. Besides, the anti-wrinkle activity result in experiment [3] is on record as “demonstrated in vivo”.

(Values after patent publication US20040166178A1, “3-O-acetyl-11-ketoboswellic acid for relaxing the skin” (L'OREAL, priority 2003, published 2004).)
